Test [1] deals with T1, Recombinant human caspase-10 (Homo sapiens, UniProt Q92851).
T1 sequence (Q92851 220-521): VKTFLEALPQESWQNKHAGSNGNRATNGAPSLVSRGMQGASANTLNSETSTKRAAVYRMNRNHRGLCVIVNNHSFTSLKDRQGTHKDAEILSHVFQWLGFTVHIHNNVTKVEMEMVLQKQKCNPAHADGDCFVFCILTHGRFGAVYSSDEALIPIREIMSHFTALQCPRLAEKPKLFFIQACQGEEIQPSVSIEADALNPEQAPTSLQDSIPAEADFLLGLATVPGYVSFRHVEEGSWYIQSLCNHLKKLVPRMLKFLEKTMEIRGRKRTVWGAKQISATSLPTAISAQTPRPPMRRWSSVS
The test can be described thus: delayed-time fluorescence caspase inhibition test, caspase-10.
Description: (§1) The substrate used is a tetrapeptide specific to this caspase, having at one of its ends a fluorescent europium marker (W1284) and at the other end a europium chelate fluorescence quencher (QSy-7): Eu-W1284-CIETDK-QSy-7.
(§2) The caspase cleaves the substrate, releasing the quencher. Thus, by excitation at 340 nm, the signal emitted by the fluorescence of the europium is read by WALLAC Victor^2 reader at 615 nm.
(§3) They are ready for use or may be divided into aliquots and stored at −80° C.. […] 20 μl of this solution are distributed per well of the assay plate. […] The assay is performed with 1 U of enzyme per well, by distributing 20 μl of the diluted solution per well. • The standard inhibitors: The standard inhibitors are dissolved in DMSO to a concentration of 10 mM. They are tested at IC20 and at IC50 on the caspases they inhibit (see following table).
(§4) They are then distributed in the wells using this solution to reach the final concentration of IC20 or IC50, i.e. 3 μl in 33 μl of final reaction volume (dilution 1/11). Thus, the final concentration of DMSO in the well is 0.3% (v/v) final. […] An intermediate dilution (1/6.6) is prepared in DMSO by diluting 10 μl of the concentrated solution in 66 μl of DMSO (final volume). […] The inhibitors are then distributed in the wells to reach the final screening concentration (10 μM), i.e. 3 μl in 33 μl of final reaction volume (dilution 1/11) and a final concentration of DMSO of 0.3% (v/v) in the well. • Protocol:
(§5) The incubation takes place for 3 hours 30 minutes at room temperature before reading the fluorescence in delayed time on the WALLAC Victor^2 reader with the filters corresponding to the fluorescence of europium (excitation filter: 340 nm, emission filter: 615 nm).
(§6) The inhibitors are diluted using solutions with concentrations of less than 20 mM in DMSO, and then prediluted in the caspase buffer. […] The specificity factor for caspase-10 is calculated as the following ratio:

The target of test [2] is T2, Recombinant human caspase-9 (Homo sapiens, UniProt P55211).
T2 sequence (P55211 1-416): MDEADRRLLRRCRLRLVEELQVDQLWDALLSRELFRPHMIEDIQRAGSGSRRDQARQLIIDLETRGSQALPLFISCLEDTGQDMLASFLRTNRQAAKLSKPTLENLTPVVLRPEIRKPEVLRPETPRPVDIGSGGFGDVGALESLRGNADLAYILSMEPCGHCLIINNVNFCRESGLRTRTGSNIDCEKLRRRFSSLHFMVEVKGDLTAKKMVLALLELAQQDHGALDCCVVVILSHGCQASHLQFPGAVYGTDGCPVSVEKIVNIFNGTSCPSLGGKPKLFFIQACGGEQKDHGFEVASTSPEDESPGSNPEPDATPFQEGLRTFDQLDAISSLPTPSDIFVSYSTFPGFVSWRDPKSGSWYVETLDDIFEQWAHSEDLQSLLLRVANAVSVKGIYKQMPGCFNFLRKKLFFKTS
The test can be described thus: delayed-time fluorescence caspase inhibition test, caspase-9.
Description: as §1, §2, §3, §4, §5, §6

Test [3] has as its target T3, Recombinant human caspase-3 (Homo sapiens, UniProt P42574).
T3 sequence (P42574 29-277): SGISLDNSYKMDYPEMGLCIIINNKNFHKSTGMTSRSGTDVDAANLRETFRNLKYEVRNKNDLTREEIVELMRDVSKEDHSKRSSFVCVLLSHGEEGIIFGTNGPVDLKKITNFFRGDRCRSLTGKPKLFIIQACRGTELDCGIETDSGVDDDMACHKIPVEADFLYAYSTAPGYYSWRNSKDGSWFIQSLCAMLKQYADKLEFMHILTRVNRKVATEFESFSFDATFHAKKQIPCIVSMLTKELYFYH
The test can be described thus: delayed-time fluorescence caspase inhibition test, caspase-3.
Description: as §1, §2
20 μl of this solution are distributed per well of the assay plate. […] The assay is performed with 1 U of enzyme per well, by distributing 20 μl of the diluted solution per well. • The standard inhibitors: The standard inhibitors are dissolved in DMSO to a concentration of 10 mM. They are tested at IC20 and at IC50 on the caspases they inhibit (see following table). The concentrations mentioned in the table are the final concentrations in the assay wells.
as §4
The volumes and the protocol were optimised for automated use.
as §5
The inhibitors are diluted using solutions with concentrations of less than 20 mM in DMSO, and then prediluted in the caspase buffer.

The target of test [4] is T4, Recombinant human caspase-2 (Homo sapiens, UniProt P42575).
T4 sequence (P42575 1-452): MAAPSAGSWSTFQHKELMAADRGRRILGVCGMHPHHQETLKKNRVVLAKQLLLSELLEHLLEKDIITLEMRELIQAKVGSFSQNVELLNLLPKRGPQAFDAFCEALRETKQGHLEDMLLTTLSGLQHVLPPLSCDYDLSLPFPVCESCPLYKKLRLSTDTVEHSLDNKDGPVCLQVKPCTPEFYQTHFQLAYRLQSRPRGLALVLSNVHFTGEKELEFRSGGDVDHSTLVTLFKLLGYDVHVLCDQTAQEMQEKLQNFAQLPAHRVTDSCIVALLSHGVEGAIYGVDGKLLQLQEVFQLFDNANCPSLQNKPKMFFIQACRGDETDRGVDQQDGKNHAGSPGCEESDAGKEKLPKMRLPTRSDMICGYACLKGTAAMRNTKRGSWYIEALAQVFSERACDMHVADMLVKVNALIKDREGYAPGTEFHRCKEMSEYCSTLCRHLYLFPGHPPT
Description: delayed-time fluorescence caspase inhibition test, caspase-2.
Description: as §1, §2, §3, §4, §5, §6

For test [5], the target named is T5, Recombinant human caspase-6 (Homo sapiens, UniProt P55212).
T5 sequence (P55212 24-293): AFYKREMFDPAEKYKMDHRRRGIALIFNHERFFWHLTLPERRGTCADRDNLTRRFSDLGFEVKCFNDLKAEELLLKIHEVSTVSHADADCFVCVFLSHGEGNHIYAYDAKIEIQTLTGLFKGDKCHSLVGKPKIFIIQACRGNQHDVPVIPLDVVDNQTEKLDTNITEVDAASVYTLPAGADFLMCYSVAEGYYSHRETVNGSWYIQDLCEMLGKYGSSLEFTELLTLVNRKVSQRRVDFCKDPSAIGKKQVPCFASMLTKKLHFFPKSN
The test can be described thus: delayed-time fluorescence caspase inhibition test, caspase-6.
Description: as §1, §2, §3, §4, §5, §6

Test [6] addresses Recombinant human caspase-8 (Homo sapiens, UniProt Q14790). The test can be described thus: delayed-time fluorescence caspase inhibition test, caspase-8.
Description: as §1, §2, §3, §4, §5, §6

Like-named read-outs stand apart in the source and are kept apart here. A value given as a limit tells only on which side of the number the result lay.

Sequence of Recombinant human caspase-8 (Q14790 217-479): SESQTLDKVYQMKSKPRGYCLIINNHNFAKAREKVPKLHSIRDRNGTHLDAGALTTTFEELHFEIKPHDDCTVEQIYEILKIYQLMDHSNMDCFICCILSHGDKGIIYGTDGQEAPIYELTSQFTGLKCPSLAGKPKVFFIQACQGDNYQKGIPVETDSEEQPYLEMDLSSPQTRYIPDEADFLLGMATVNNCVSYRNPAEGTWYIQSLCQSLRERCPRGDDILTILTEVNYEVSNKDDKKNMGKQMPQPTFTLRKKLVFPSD

By IC50 is commonly meant the midpoint of a concentration-inhibition curve. Consider `O=S(=O)(NCC1(Cc2ccc(CCO)cc2)CCCC1)c1ccc(Cl)cc1Cl` [Example 46], for which the half-inhibitory concentration (IC50) in test [1] was 0.179 µM; in test [2] it was over 200 µM; in test [3], over 200 µM; in test [4], over 200 µM; in test [5], over 200 µM; in test [6], over 200 µM.

`COc1ccc(S(=O)(=O)NCC2(Cc3ccc(CCO)cc3)CCCC2)cc1` [Example 47]: the half-inhibitory concentration (IC50) in test [1] is 5.51 µM; in test [2] it was over 200 µM; in test [3], over 200 µM; in test [4], over 200 µM; in test [5], over 200 µM; in test [6] it was over 200 µM.

Turning to `O=S(=O)(NCC1(Cc2ccc(CCO)cc2)CCCC1)c1ccc(C(F)(F)F)cc1` [Example 49], the half-maximal inhibitory concentration (IC50) in test [1] is 3.14 µM; in test [2] it was over 200 µM; in test [3], over 200 µM; in test [4] it was over 200 µM; in test [5] it was over 200 µM; in test [6], over 200 µM.

Consider `O=S(=O)(NCC1(Cc2ccc(CCO)cc2)CCCC1)c1cccc(C(F)(F)F)c1` [Example 50], for which the IC50 in test [1] was 3.16 µM; in test [2], over 200 µM; in test [3], over 200 µM; in test [4], over 200 µM; in test [5], over 200 µM; in test [6] it was over 200 µM.

Turning to `O=S(=O)(NCC1(Cc2ccc(CCO)cc2)CCCC1)c1ccc2ccccc2c1` [Example 51], the IC50 in test [1] was 0.281 µM; in test [2], over 200 µM; in test [3], over 200 µM; in test [4] it was over 200 µM; in test [5], over 200 µM; in test [6], over 200 µM.

Regarding `O=[N+]([O-])c1ccc(S(=O)(=O)NCC2(Cc3ccc(CCO)cc3)CCCC2)cc1` [Example 52], the IC50 in test [1] was 3.69 µM; in test [2], over 200 µM; in test [3], over 200 µM; in test [4], over 200 µM; in test [5], over 200 µM; in test [6], over 200 µM.

Regarding `O=S(=O)(NCC1(Cc2ccc(CCO)cc2)CCC1)c1ccc(Cl)cc1` [Example 56], the IC50 in test [1] was 0.989 µM; in test [2] it was over 200 µM; in test [3] it was over 200 µM; in test [4] it was over 200 µM; in test [5] it was over 200 µM; in test [6] it was over 200 µM.

Take `Cc1ccc(S(=O)(=O)NCC2(Cc3ccc(CCO)cc3)CCC2)cc1` [Example 57]: the IC50 is 3.05 µM in test [1]; over 200 µM in test [2]; over 200 µM in test [3]; over 200 µM in test [4]; over 200 µM in test [5]; over 200 µM in test [6].

On to `O=S(=O)(NCC1(Cc2ccc(CCO)cc2)CCCC1)c1c(F)c(F)c(F)c(F)c1F` [Example 58], for which the IC50 in test [1] is 0.143 µM; in test [2] it was 46.7 µM; in test [3], over 200 µM; in test [4], over 200 µM; in test [5] it was over 200 µM; in test [6], over 200 µM.

Take `Cc1ccc(S(=O)(=O)NCC2(Cc3ccc(CCO)cc3)CCCC2)cc1` [Example 59]: the IC50 is 4.06 µM in test [1]; over 200 µM in test [2]; over 200 µM in test [3]; over 200 µM in test [4]; over 200 µM in test [5]; over 200 µM in test [6].

In the case of `O=S(=O)(NCC1(Cc2ccc(CCO)cc2)CCCC1)c1cc(F)c(F)c(F)c1` [Example 61], the IC50 in test [1] is 1.79 µM; in test [2], over 200 µM; in test [3], over 200 µM; in test [4] it was over 200 µM; in test [5] it was over 200 µM; in test [6], over 200 µM.

As to `O=S(=O)(NCC1(Cc2ccc(CCO)cc2)CCCC1)c1cc(Cl)cc(Cl)c1` [Example 62], the IC50 in test [1] is 6.22 µM; in test [2], over 200 µM; in test [3], over 200 µM; in test [4], over 200 µM; in test [5] it was over 200 µM; in test [6] it was over 200 µM.

Turning to `Cc1cccc(S(=O)(=O)NCC2(Cc3ccc(CCO)cc3)CCCC2)c1` [Example 63], the IC50 in test [1] is 6.56 µM; in test [2], over 200 µM; in test [3], over 200 µM; in test [4], over 200 µM; in test [5], over 200 µM; in test [6] it was over 200 µM.

Turning to `O=S(=O)(NCC1(Cc2ccc(CCO)cc2)CCCC1)c1ccc(Cl)c(C(F)(F)F)c1` [Example 65], the IC50 is 0.25 µM in test [1]; over 25 µM in test [2]; over 200 µM in test [3]; over 200 µM in test [4]; over 200 µM in test [5]; over 200 µM in test [6].

As to `O=S(=O)(NCC1(Cc2ccc(CCO)cc2)CCC1)c1c(F)c(F)c(F)c(F)c1F` [Example 66], the IC50 in test [1] (read-out: Inhibition IC50 Caspase-10, tested 100 nM to 200 μM, 1% DMSO, 3 h 30 min at room temperature) was 0.393 µM; in test [2] (read-out: Inhibition IC50 Caspase-9, tested 100 nM to 200 μM, 1% DMSO, 3 h 30 min at room temperature), over 200 µM; in test [3] (read-out: Inhibition IC50 Caspase-3, tested 100 nM to 200 μM, 1% DMSO, 3 h 30 min at room temperature), over 200 µM; in test [4] (read-out: Inhibition IC50 Caspase-2, tested 100 nM to 200 μM, 1% DMSO, 3 h 30 min at room temperature), over 200 µM; in test [5] (read-out: Inhibition IC50 Caspase-6, tested 100 nM to 200 μM, 1% DMSO, 3 h 30 min at room temperature) it was over 200 µM; in test [6] (read-out: Inhibition IC50 Caspase-8, tested 100 nM to 200 μM, 1% DMSO, 3 h 30 min at room temperature) it was over 200 µM.

These data come from US20130090385A1, “NOVEL SPECIFIC CASPASE-10 INHIBITORS” (MERCK PATENT GESELLSCHAFT MIT BESCHRANKTER HAFTUNG, priority 2005, published 2013).
